Measurements: US20070004736A1, “Imidazole derivative, process for producing the same, and use” (priority 2002, published 2007)
Where a name gives a salt, the structure may show the parent alone.

molecular target: human FXa (Homo sapiens, UniProt P00742); assay: Human activated blood coagulation factor X (FXa) inhibitory activity; type: biochemical; details: concentration at which 50% of FXa activity was inhibited; substrate S-2765, 37° C., absorbance at 405 nm
Protocol: (1) Human Activated Blood Coagulation Factor X (FXa) Inhibitory Activity
Experimental method: 225 μl of a 0.05 M Tris-HCl buffer (pH 8.3) containing 0.145 M sodium chloride and 2 mM calcium chloride, 5 μl of a sample (a test compound was dissolved in dimethyl sulfoxide) and 10 μl of human FXa (0.3 unit/ml) were added to a 96-well microplate and incubated at 37° C. for about 10 minutes. Then, 10 μl of a substrate (3 mM, S-2765) was added to the plate and incubated at 37° C. for 10 minutes. After stopping the reaction by adding 25 μl of a 50% aqueous acetic acid, a change in absorbance at 405 nm was measured with a spectrophotometer, and the concentration (IC50) at which 50% of FXa activity was inhibited was calculated.

Chain of human FXa (P00742 235-488 limits assumed): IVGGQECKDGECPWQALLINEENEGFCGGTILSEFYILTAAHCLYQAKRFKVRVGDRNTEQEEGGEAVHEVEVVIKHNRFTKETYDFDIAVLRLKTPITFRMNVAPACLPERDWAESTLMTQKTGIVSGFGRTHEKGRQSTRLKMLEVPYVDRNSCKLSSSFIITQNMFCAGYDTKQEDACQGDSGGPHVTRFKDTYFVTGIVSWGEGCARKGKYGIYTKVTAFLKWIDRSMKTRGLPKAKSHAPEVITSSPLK
Chain of human FXa (P00742 41-179 partner limits assumed): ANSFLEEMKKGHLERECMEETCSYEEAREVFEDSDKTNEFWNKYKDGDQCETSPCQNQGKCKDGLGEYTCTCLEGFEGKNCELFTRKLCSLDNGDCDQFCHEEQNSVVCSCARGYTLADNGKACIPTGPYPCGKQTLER

| IC50 | Structure (SMILES) |
| --- | --- |
| 31 nM | Cc1ncc(C2CCN(C(=O)CCS(=O)(=O)c3ccc4cc(Cl)ccc4c3)CC2)n1C [Example 24, 1-{3-[(6-Chloro-2-naphthyl)sulufonyl]propanoyl}-4-(1,2-dimethyl-1H-imidazol-5-yl)piperidine] |
| 11 nM | Cc1ncc2n1CCN(C1CCN(C(=O)CCS(=O)(=O)c3ccc4cc(Cl)ccc4c3)CC1)C2=O [Example 38, 7-(1-{3-[(6-Chloro-2-naphthyl)sulfonyl]propanoyl}-4-piperidinyl)-3-methyl-6,7-dihydroimidazo[1,5-a]pyrazin-8(5H)-one] |
| 11 nM | Cc1ncn2c1C(=O)N(C1CCN(C(=O)CCS(=O)(=O)c3ccc4cc(Cl)ccc4c3)CC1)CC2 [Example 39, 7-(1-{3-[(6-Chloro-2-naphthyl)sulfonyl]propanoyl}-4-piperidinyl)-1-methyl-6,7-dihydoroimidazo[1,5-a]pyrazin-8(5H)-one] |
| 7.1 nM | CCc1ncc2n1C(=O)N(C1CCN(C(=O)CCS(=O)(=O)c3ccc4cc(Cl)ccc4c3)CC1)C2 [Example 42, 2-(1-{3-[(6-Chloro-2-naphthyl)sulfonyl]propanoyl}-4-piperidinyl)-5-ethyl-1,2-dihydro-3H-imidazo[1,5-c]imidazol-3-one] |
| 7.2 nM | Cc1nc(C)n2c1CN(C1CCN(C(=O)CCS(=O)(=O)c3ccc4cc(Cl)ccc4c3)CC1)C2=O [Example 72, 2-(1-{3-[(6-Chloro-2-naphthyl)sulfonyl]propanoyl}-4-piperidinyl)-5,7-dimethyl-1,2-dihydro-3H-imidazo[1,5-c]imidazol-3-one] |
| 43 nM | Cc1nccn1CCC1CCN(C(=O)CCS(=O)(=O)c2ccc3cc(Cl)ccc3c2)CC1 [Example 102, 1-{3-[(6-Chloro-2-naphthyl)sulfonyl]propanoyl}-4-[2-(2-methyl-1H-imdazol-1-yl)ethyl]piperidine hydrochloride] |
| 45 nM | Cc1nc(C)n(CCC2CCN(C(=O)CCS(=O)(=O)c3ccc4cc(Cl)ccc4c3)CC2)c1C [Example 109, 1-{3-[(6-Chloro-2-naphthyl)sulfonyl]propanoyl}-4-[2-(2,4,5-trimethyl-1H-imidazol-1-yl)ethyl]piperidine] |
